One series relates to HCT116 cells. The experiment in a line: In vitro cytotoxicity, cell colony formation assay (HCT116). The following applies: colonies counted after 7 days, concentration producing 50% inhibition of colony formation. It counts as cell-based. How it is done:
(§1) Four hundred cells (HCT116) were plated in 60 mm Petri dishes containing 2.7 mL of medium (modified McCoy's 5a medium containing 10% fetal bovine serum and 100 units/mL penicillin and 100 µg/mL streptomycin). The cells were incubated in a CO2 incubator at 37° C. for 5 h for attachment to the bottom of Petri dishes. The compound identified in Example 1 was made up fresh in medium at ten times the final concentration, and then 0.3 mL of this stock solution was added to the 2.7 mL of medium in the dish. The cells were then incubated with drugs for 72 h at 37° C. At the end of incubation the drug-containing media were decanted, the dishes were rinsed with 4 mL of Hank's Balance Salt Solution (HBSS), 5 mL of fresh medium was added, and the dishes were returned to the incubator for colony formation. The cell colonies were counted using a colony counter after incubation for 7 days. Cell survival was calculated and the values of IC50 (the drug concentration producing 50% inhibition of colony formation) were determined for each tested compound.
(§2) The assays described above were repeated using the compound identified in Example 2. The results of these assays are tabulated below in comparison with data for paclitaxel and docetaxel.

The test system of the next series is VM46 colon cell line. The experiment in a line: In vitro cytotoxicity, cell colony formation assay (VM46). It counts as cell-based. The note with it: 72 h drug incubation, colonies counted after 7 days, concentration producing 50% inhibition of colony formation. As to the method: as §1
An identical assessment was carried out using the VM46 colon cell line.
as §2

Setting [1] is: Homo sapiens, HCT-116, 72 h drug incubation.

As usually defined, the IC50 is the concentration at which inhibition is half-maximal. In general, melting point refers to the temperature, or range, at which the solid turns liquid.

On to `CC(=O)O[C@H]1C(=O)[C@@]2(C)[C@H]([C@H](OC(=O)c3ccccc3)[C@]3(O)C[C@H](OC(=O)[C@H](O)[C@@H](NC(=O)c4ccccc4)c4ccccc4)C(C)=C1C3(C)C)[C@]1(OC(C)=O)CO[C@@H]1C[C@@H]2O` [Paclitaxel, paclitaxel, reference compound], for which the figures for the half-inhibitory concentration (IC50) in the series with HCT116 cells (setting [1]) and with VM46 colon cell line were 2.1 nM and 20 nM, respectively.
Regarding `CC(=O)O[C@@]12CO[C@@H]1C[C@H](O)[C@@]1(C)C(=O)[C@H](O)C3=C(C)[C@@H](OC(=O)[C@H](O)[C@@H](NC(=O)OC(C)(C)C)c4ccccc4)C[C@@](O)([C@@H](OC(=O)c4ccccc4)[C@H]21)C3(C)C` [Docetaxel, docetaxel, reference compound], the values for the IC50 with HCT116 cells (72 h drug incubation) and with VM46 colon cell line were 0.6 nM and 6.7 nM, respectively.
For the compound `CC(=O)O[C@@]12CO[C@@H]1C[C@H](OC(=O)[C@@H](C)O)[C@@]1(C)C(=O)[C@H](O)C3=C(C)[C@@H](OC(=O)[C@H](O)[C@@H](NC(=O)OC(C)(C)C)c4ccco4)C[C@@](O)([C@@H](OC(=O)c4ccccc4)C12)C3(C)C` (stereo partly drawn) [7-((R)-(+)-2-hydroxyloxypropionyl)-2-furyl-Docetaxel], the 50% inhibitory concentration (IC50) in the series on HCT116 cells (setting [1]) is 0.05 nM; with VM46 colon cell line, 4.22 nM.
`CC(=O)O[C@@]12CO[C@@H]1C[C@H](OC(=O)[C@H](C)O)[C@@]1(C)C(=O)[C@H](O)C3=C(C)[C@@H](OC(=O)[C@H](O)[C@@H](NC(=O)OC(C)(C)C)c4ccco4)C[C@@](O)([C@@H](OC(=O)c4ccccc4)C12)C3(C)C` (stereo partly drawn) [7-((S)-(−)-2-hydroxyloxypropionyl)-2-furyl-Docetaxel] displayed a melting point of 174 to 176 °C. Also, the IC50 in the series on HCT116 cells (setting [1]) is 0.17 nM. The compound also registered an IC50 with VM46 colon cell line of 2.5 nM.

The record behind these values is patent US7160919B2, “C7 lactyloxy-substituted taxanes” (Florida State University Research Foundation, Inc., priority 2004, dated 2007).
